Experimental findings from patent US20260152751A1, “INTERFERING RNA FOR INHIBITING JAK1 GENE EXPRESSION AND USE THEREOF” (Jenkem Technology Co., Ltd. (BEIJING), priority 2024, published 2026) are described below.

[Ψ] = pseudouridine; d = 2'-deoxy (DNA); r = 2'-OH (RNA)

One data set deals with JAK1 gene. The data set can be described thus: qPCR of JAK1 expression in HaCaT cells transfected with modified siJAK1. In kind it is cell-based, human. The settings on record: siRNA 50 nM, 48 h after transfection, JAK1 by qPCR, siNC = 100.00. As for the experimental part: (§1) One day prior to transfection, 293T cells were seeded into a 24-well cell culture plate at 1×10^5 cells/well, and the culture medium was 500 μL of DMEM containing 10% FBS and 1% penicillin-streptomycin. Three replicate wells were made for each group. The culture plate was placed in an incubator with 5% CO2 at 37° C. for 24 h to allow the cells to adhere to the wall. On the day of transfection, the culture medium was changed to 450 μL of DMEM culture medium without antibiotics (containing 10% FBS). The siRNAs were diluted with 25 μL of Opti-MEM culture medium, and the control group was siNC at the same concentration; a Lipofectamine™RNAiMAX transfection reagent (Lip) was diluted with another 25 μL of Opti-MEM culture medium, and the mixture was left to stand at room temperature for 5 min; and the two dilutions were uniformly mixed and left to stand at room temperature for 5 min. 50 μL of the mixed solution described above was added to each well to obtain a final transfection volume of 500 μL, and the working concentration of the siRNA was 50 nM. After the cells were further cultured in an incubator with 5% CO2 at 37° C. for 48 h, the total RNA of the cells was extracted.
(§2) 1) The RNA was reverse-transcribed into a cDNA template using the All-in-One First-Strand Synthesis MasterMix (LABLEAD, Cat. No.: F0202) kit. The reaction system was established according to Table 2, where all components were mixed uniformly and centrifuged to collect the liquid at the bottom of a tube, and the PCR program was run according to the settings of 37° C. for 2 min, 55° C. for 15 min, and 85° C. for 5 min, thereby giving the cDNA template.
(§3) 2) The gene expression level was detected using the Taq SYBR® Green qPCR Premix (LABLEAD, Cat. No.: R0202) kit, and the qPCR system was established according to Table 3. All components were mixed uniformly and centrifuged to collect the liquid at the bottom of a tube, and the PCR program was run according to the following settings: • Step1: 95° C. 30 s; • Step2: 95° C. 10 s; • Step3: 60° C. 30 s+Plate Read; • Step4: Go to Step2, 40 times; • Step5: Melt Curve 65 to 95° C., increment 0.5° C., for 5 s+Plate Read.
(§4) GAPDH was used as an endogenous reference to detect the relative expression level of JAK1 gene, and the sequences of the primers used are as follows: […]
According to the method described in Example 2, human keratinocyte HaCaT cells were transfected with the modified siJAK1 at an siRNA working concentration of 50 nM. The expression level of JAK1 was detected by qPCR 48 h after the transfection. The controls included siNC and unmodified siJAK1 at the same concentration.
(In general: In qPCR the cycle at which signal appears reflects the starting amount.)
As for “siJAK1-826-m4: pseudouridine-modified siJAK1-826; sense strand SEQ ID NO: 49, antisense strand SEQ ID NO: 53 (sense GGCAUGGAACCAACGACAAUU; antisense UUGUCGUUGGUUCCAUGCCTT; sense: sugars from the 5' end r19 d2, [Ψ] at 5, backbone and T or U not given here; antisense: sugars from the 5' end r19 d2, [Ψ] at 1, 2, 4, 7, 8, 11, 12, 16, backbone not given here)”, the “Relative expression level, Mean value (Mean)” value came out at 13.55. The same measure, in the same setting: the value for “siJAK1-826: siRNA targeting JAK1; sense strand SEQ ID NO: 16 dTdT, antisense strand SEQ ID NO: 30 dTdT (sense GGCAUGGAACCAACGACAA; antisense UUGUCGUUGGUUCCAUGCC; listed as RNA, chemistry not fully specified)” was 13.33.

As to “siJAK1-3283-m10: pseudouridine-modified siJAK1-3283; sense strand SEQ ID NO: 50, antisense strand SEQ ID NO: 54 (sense AGAACAUUGUGAAGUACAATT; antisense UUGUACUUCACAAUGUUCUTT; sense: sugars from the 5' end r19 d2, [Ψ] at 7, 8, 10, 15, backbone not given here; antisense: sugars from the 5' end r19 d2, [Ψ] at 1, 2, 4, 7, 8, 14, 16, 17, 19, backbone not given here)”, the “Relative expression level, Mean value (Mean)” value is given as 15.89. With “siJAK1-3283: siRNA targeting JAK1; sense strand SEQ ID NO: 20 dTdT, antisense strand SEQ ID NO: 34 dTdT (sense AGAACAUUGUGAAGUACAA; antisense UUGUACUUCACAAUGUUCU; listed as RNA, chemistry not fully specified)”, the “Relative expression level, Mean value (Mean)” value turned out to be 14.73.

For “siNC: non-targeting control sequence; sense strand SEQ ID NO: 43, antisense strand SEQ ID NO: 44 (sense UUCUCCGAACGUGUCACGUTT; antisense ACGUGACACGUUCGGAGAATT; Bought control siRNA with 3' TT overhangs, chemistry not given here, further chemistry not given here) [reference compound]”, the “Relative expression level, Mean value (Mean)” value is 100.00.

The next data set relates to JAK1 gene. The data set can be described thus: siRNA screening: qPCR of JAK1 relative expression in transfected 293T cells. In kind it is cell-based, human. The settings on record: siRNA 50 nM, 48 h after transfection, GAPDH reference, siNC = 100.00. The method, then:
as §1
RNA was extracted using Eastep™ Super total RNA extraction kit, with the detailed procedures as follows:
1) 300 μL of RNA lysis solution and 300 μL of RNA diluent were added into each well of the 24-well cell culture plate, and the mixture was uniformly mixed and subsequently transferred to a 1.5 mL centrifuge tube. The mixture was centrifuged at 14000 g for 10 min, and the supernatant was carefully pipetted into a new 1.5 mL centrifuge tube.
2) A 0.5-fold volume of absolute ethanol was added, and the mixture was uniformly mixed by allowing the tube to be repeatedly upside down 15-20 times. Subsequently, the mixture was transferred to a centrifuge column and centrifuged at 12000 g for 1 min. The filtrate was discarded.
3) 600 μL of RNA wash buffer was added, and the mixture was centrifuged at 12000 g for 1 min. The filtrate was discarded.
4) 50 μL of DNase I incubation buffer was added, followed by DNA digestion at room temperature for 15 min.
5) 600 μL of RNA wash buffer was added, the mixture was centrifuged at 12000 g for 1 min, and the filtrate was discarded. This procedure was repeated once. Subsequently, the mixture was centrifuged at 14000 g for 2 min to remove the residual RNA wash buffer, and then the centrifuge column was placed in a collection tube.
6) A proper amount of RNase-free H2O was added, and the mixture was left to stand for 15 min at room temperature, followed by centrifugation at 14000 g for 1 min. The RNA quality and concentration were detected using NanoDrop™. The extracted RNA was incubated at 70° C. for 5 min and immediately placed in an ice bath for 5 min for later use.
as §2, §3, §4
Consider “siJAK1-474: siRNA targeting JAK1; sense strand SEQ ID NO: 15 dTdT, antisense strand SEQ ID NO: 29 dTdT (sense GAAUAAAUGCAGUAUCUAA; antisense UUAGAUACUGCAUUUAUUC; listed as RNA, chemistry not fully specified)”, for which the “Relative expression level of JAK1, Mean value (Mean)” value (“Relative expression level of JAK1” below) turned out to be 20.24. With “siJAK1-826: siRNA targeting JAK1; sense strand SEQ ID NO: 16 dTdT, antisense strand SEQ ID NO: 30 dTdT (sense GGCAUGGAACCAACGACAA; antisense UUGUCGUUGGUUCCAUGCC; listed as RNA, chemistry not fully specified)”, the “Relative expression level of JAK1” value was found to be 14.18. “siJAK1-1131: siRNA targeting JAK1; sense strand SEQ ID NO: 17, antisense strand SEQ ID NO: 31 (sense GCGAUAUAUUCCAGAAACAUU; antisense UGUUUCUGGAAUAUAUCGCUU; listed as RNA, chemistry not fully specified)”: the “Relative expression level of JAK1” value stood at 23.55. In the case of “siJAK1-2200: siRNA targeting JAK1; sense strand SEQ ID NO: 18 dTdT, antisense strand SEQ ID NO: 32 dTdT (sense GUUUCGAUCGGAUCCUCAA; antisense UUGAGGAUCCGAUCGAAAC; listed as RNA, chemistry not fully specified)”, the “Relative expression level of JAK1” value came to 34.77. “siJAK1-2714: siRNA targeting JAK1; sense strand SEQ ID NO: 19 dTdT, antisense strand SEQ ID NO: 33 dTdT (sense GGUGCUGUCUAGGCAAGAA; antisense UUCUUGCCUAGACAGCACC; listed as RNA, chemistry not fully specified)”: the “Relative expression level of JAK1” value is 19.12.

On to “siJAK1-3283: siRNA targeting JAK1; sense strand SEQ ID NO: 20 dTdT, antisense strand SEQ ID NO: 34 dTdT (sense AGAACAUUGUGAAGUACAA; antisense UUGUACUUCACAAUGUUCU; listed as RNA, chemistry not fully specified)”, for which the “Relative expression level of JAK1” value is given as 16.41. “siJAK1-3630: siRNA targeting JAK1; sense strand SEQ ID NO: 21 dTdT, antisense strand SEQ ID NO: 35 dTdT (sense GAAUGUUUAAUGCAAUCUA; antisense UAGAUUGCAUUAAACAUUC; listed as RNA, chemistry not fully specified)”: the “Relative expression level of JAK1” value is 25.58. For “siJAK1-4096: siRNA targeting JAK1; sense strand SEQ ID NO: 22 dTdT, antisense strand SEQ ID NO: 36 dTdT (sense GGCACACUGUAGUGCUUAA; antisense UUAAGCACUACAGUGUGCC; listed as RNA, chemistry not fully specified)”, the “Relative expression level of JAK1” value is on record as 38.56. For the substance “siJAK1-4359: siRNA targeting JAK1; sense strand SEQ ID NO: 23, antisense strand SEQ ID NO: 37 (sense CACAUUAAUCAUAGAUAAAGA; antisense UUUAUCUAUGAUUAAUGUGCC; listed as RNA, chemistry not fully specified)”, the “Relative expression level of JAK1” value worked out at 31.11. Consider “siJAK1-4389: siRNA targeting JAK1; sense strand SEQ ID NO: 24, antisense strand SEQ ID NO: 38 (sense GGACUUAGCCCUCAAAUUUCA; antisense AAAUUUGAGGGCUAAGUCCAU; listed as RNA, chemistry not fully specified)”, for which the “Relative expression level of JAK1” value was found to be 27.56.

Regarding “siJAK1-4410: siRNA targeting JAK1; sense strand SEQ ID NO: 25 dTdT, antisense strand SEQ ID NO: 39 dTdT (sense CAGUAUCUAUACAGUACUA; antisense UAGUACUGUAUAGAUACUG; listed as RNA, chemistry not fully specified)”, the “Relative expression level of JAK1” value is given as 24.41. Consider “siJAK1-4627: siRNA targeting JAK1; sense strand SEQ ID NO: 26 dTdT, antisense strand SEQ ID NO: 40 dTdT (sense GCAUGUUAAUUCUCAAGAA; antisense UUCUUGAGAAUUAACAUGC; listed as RNA, chemistry not fully specified)”, for which the “Relative expression level of JAK1” value is reported as 38.64. Regarding “siJAK1-5026: siRNA targeting JAK1; sense strand SEQ ID NO: 27 dTdT, antisense strand SEQ ID NO: 41 dTdT (sense GAUUCAAUGUGAACGAUUA; antisense UAAUCGUUCACAUUGAAUC; listed as RNA, chemistry not fully specified)”, the “Relative expression level of JAK1” value was found to be 32.40.

Turning to “siJAK1-5034: siRNA targeting JAK1; sense strand SEQ ID NO: 28, antisense strand SEQ ID NO: 42 (sense GAACGAUUACGGUCUUUAUGA; antisense AUAAAGACCGUAAUCGUUCAC; listed as RNA, chemistry not fully specified)”, the “Relative expression level of JAK1” value stood at 35.89.

In the case of “siNC: non-targeting control sequence; sense strand SEQ ID NO: 43, antisense strand SEQ ID NO: 44 (sense UUCUCCGAACGUGUCACGUTT; antisense ACGUGACACGUUCGGAGAATT; Bought control siRNA with 3' TT overhangs, chemistry not given here, further chemistry not given here) [reference compound]”, the “Relative expression level of JAK1” value was found to be 100.00.
